Data reported in patent publication US8088727B2, “Method for reducing the risk, lessening the symptom, or delaying the onset of insulin resistance by administering SS-31” (Cornell University, priority 2008, dated 2012).
Square brackets hold non-standard residues; d marks the D form. Ends that are not written are not given here. Peptide text beside a SMILES is read from it. Dmt = Cc1cc(O)cc(C)c1C[C@H](N)C(=O)O

Columns and labels:
[1] = system: several mammalian cell types; conditions: several mammalian cell types (Zhao et al. 2003); cited from earlier work
[2] = system: mitochondrial inner membrane; conditions: while scavenging ROS; cited from earlier work
[3] = system: high fat diet-induced insulin resistance; assay: Oral glucose tolerance test after six week high fat diet; format: in vivo, rat
Protocol: To determine whether mitochondrial-derived changes in intracellular redox environment may be linked to the etiology of high fat diet-induced insulin resistance, oral glucose tolerance tests were performed in rats after the six week high fat diet. On the day of experiments, food was removed 10 hr prior to administration of a 2 g/kg glucose solution via gavage. Glucose levels were determined on whole blood samples (Lifescan, Milpitas, Calif.). Serum insulin levels were determined via a rat/mouse ELISA kit (Linco Research, St. Charles, Mo.). Fasting data were used to determine homeostatic model assessment (HOMA)-calculated as fasting insulin (μU/ml) x fasting glucose (mM)/22.5.

[4] = rat, in vivo
Text: (§1) Next, rats were placed on a high fat diet (60%) for six weeks with or without daily administration of SS-31.

[5] = system: hearts subjected to myocardial stunning; conditions: hearts subjected to myocardial stunning (Zhao et al. 2004); cited from earlier work
[6] = system: mitochondrial H2O2 emission in permeabilized skeletal muscle fiber bundles; assay: Mitochondrial H2O2 emission in permeabilized skeletal muscle fiber bundles, SS-31 dose response in vitro; format: cell-based, rat; conditions: dose response curve in vitro (FIG. 3A), succinate-supported respiration
Protocol: Preparation of permeabilized muscle fiber bundles. Briefly, small portions (25 mg) of soleus, RG, and WG muscle were dissected and placed in ice-cold buffer X, containing 60 mM K-MES, 35 mM KCl, 7.23 mM K2 EGTA, 2.77 mM CaK2EGTA, 20 mM imidazole, 0.5 mM DTT, 20 mM taurine, 5.7 mM ATP, 15 mM PCr, and 6.56 mM MgCl2·6H2O (pH 7.1, 295 mosmol/kg H2O). The muscle was trimmed of connective tissue and cut down to fiber bundles (2×7 mm, 4-8 mg wet wt). With a pair of needle-tipped forceps under a dissecting microscope, fibers were gently separated from one another to maximize surface area of the fiber bundle, leaving only small regions of contact. […]
Mitochondrial respiration and H2O2 emission measurements. […] Mitochondrial H2O2 emission was measured at 30° C. during state 4 respiration in Buffer Z (10 μg/ml oligomycin) by continuously monitoring oxidation of Amplex Red using a Spex Fluoromax 3 (Jobin Yvon, Ltd.) spectrofluorometer with temperature control and magnetic stirring at >1000 rpm. […] After baseline fluorescence (reactants only) was established, the reaction was initiated by addition of a permeabilized fiber bundle to 300 μl of buffer Z containing 5 μM Amplex Red and 0.5 U/ml HRP, with succinate at […]. […] The rate of respiration is expressed as pmol·s^−1·mg dry weight^−1, and mitochondrial H2O2 emission expressed as pmol·min^−1·mg dry weight^−1. […]

[7] = system: skeletal muscle mitochondrial respiration of high fat fed rats; assay: Mitochondrial respiration in permeabilized fibers from high fat fed rats given SS-31; format: in vivo, rat
Text: as §1

Akt = Akt phosphorylation in skeletal muscle after oral glucose load; format: in vivo, rat; conditions: skeletal muscle of high fat fed rats, 1 h after oral glucose load (FIGS. 4E and 4F)
Protocol: Increased homeostatic model assessment (HOMA, FIG. 4C), and greater area under the curves for both blood glucose and insulin (FIG. 4D) confirmed the development of insulin resistance in high fat fed rats. […] To further assess insulin sensitivity, the phosphorylation state of the insulin signaling protein Akt in skeletal muscle from animals was measured after a 10 h fast or 1 h after receiving an oral glucose load. In response to glucose ingestion, Akt phosphorylation increased ˜5-fold in skeletal muscle of chow-fed controls but was unchanged in high fat fed rats (FIGS. 4E and 4F), confirming the presence of insulin resistance at the level of insulin signaling.

pancreatic islet cells = pancreatic islet cells after transplantation (Thomas et al. 2005); cited from earlier work
[8] = system: skeletal muscle mitochondrial H2O2 emission of high fat fed rats; assay: Mitochondrial H2O2 emission in permeabilized fibers from high fat fed rats given SS-31; format: in vivo, rat; conditions: for increase in mitochondrial oxidant emitting potential: high fat diet (60%) six weeks
Text: as §1

fatty (fa/fa) Zucker rat = conditions: SS-31 1.0-5.0 mg/kg i.p. or oral, approximately 6 weeks
Protocol: Measured outcomes include body weight, fasting glucose/insulin/free fatty acid, glucose tolerance (OGTT), in vitro muscle insulin sensitivity (incubation), markers of insulin signaling (Akt-P, IRS-P), mitochondrial function studies on permeabilized fibers (respiration, H2O2 emission), markers of intracellular oxidative stress (lipid peroxidation, GSH/GSSG ratio, aconitase activity) and mitochondrial enzyme activity. […] Successful prevention of insulin resistance by the aromatic-cationic peptides of the invention is indicated by a reduction in one or more of the markers associated with insulin resistance or mitochondrial dysfunction enumerated above.
Measured outcomes include body weight, fasting glucose/insulin/free fatty acid, glucose tolerance (OGTT), in vitro muscle insulin sensitivity (incubation), markers of insulin signaling (Akt-P, IRS-P), mitochondrial function studies on permeabilized fibers (respiration, H2O2 emission), markers of intracellular oxidative stress (lipid peroxidation, GSH/GSSG ratio, aconitase activity) and mitochondrial enzyme activity. […] Successful treatment of insulin resistance by the aromatic-cationic peptides of the invention is indicated by a reduction in one or more of the markers associated with insulin resistance or mitochondrial dysfunction enumerated above.

[9] = system: intracellular redox environment in skeletal muscle; assay: Total glutathione and GSH/GSSG ratio in skeletal muscle of high fat fed rats; format: in vivo, rat
Protocol: Protein homogenates were prepared by homogenizing 100 mg of powered frozen muscle in a buffer containing in mM: 10 Tris, 1 EDTA, 1 EGTA, 2 NaOrthovanadate, 2 NaPyrophosphate, 5 NaF, protease inhibitor cocktail (Complete) at pH 7.2. After homogenization, 1% Triton X-100 was added to the protein suspension, cotexed and allowed to sit on ice for 5 minutes. The tubes were then spun at 10,000 rpm for 10 minutes to pellet the insoluble debris. For GSSG measurement, tissue was homogenized in a solution containing 20 mM Methyl-2-vinylpyridinium triflate to scavenge all reduced thiols in the sample. Total GSH and GSSG were then measured using the reagents and calibration set provided by the GSH/GSSG assay (Oxis Research) according to the manufacturer's instructions, with small modifications as needed.
To establish a link between the increased mitochondrial oxidant emission brought about by high fat diet and its effect on overall redox environment of skeletal muscle, both GSH and GSSG were measured in skeletal muscle of chow fed and high fat fed rats under two conditions; after a 10 h fast and 1 h after administration of a standard glucose load (oral gavage, 10 h fasted). […]

mu-opioid receptor = mu-opioid receptor (Homo sapiens, UniProt P35372); conditions: cited from earlier work
[10] = system: animal models of Parkinson's and amyotrophic lateral sclerosis disease; conditions: animal models of Parkinson's and amyotrophic lateral sclerosis disease (Petri et al. 2006; Szeto et al. 2006); cited from earlier work

Sequence of mu-opioid receptor (P35372 whole entry, species assumed): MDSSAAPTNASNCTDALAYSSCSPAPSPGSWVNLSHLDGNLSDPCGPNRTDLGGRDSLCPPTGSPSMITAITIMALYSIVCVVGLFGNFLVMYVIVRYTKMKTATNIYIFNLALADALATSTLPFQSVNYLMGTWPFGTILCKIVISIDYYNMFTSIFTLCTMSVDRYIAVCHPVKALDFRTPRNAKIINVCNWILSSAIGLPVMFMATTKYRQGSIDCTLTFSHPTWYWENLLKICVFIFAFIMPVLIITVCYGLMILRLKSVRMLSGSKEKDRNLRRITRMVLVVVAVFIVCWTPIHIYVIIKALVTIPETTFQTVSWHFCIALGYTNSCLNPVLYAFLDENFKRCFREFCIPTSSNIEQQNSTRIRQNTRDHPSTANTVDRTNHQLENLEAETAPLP

## 2′,6′-Dmt-D-Arg-Phe-Lys-NH2 [SS-02]
[1]
  penetration of the plasma membrane: readily penetrates

## Cc1cc(O)cc(C)c1C[C@H](NC(=O)[C@H](N)CCCNC(=N)N)C(=O)N[C@@H](CCCCN)C(=O)N[C@@H](Cc1ccccc1)C(N)=O [SS-31, D-Arg-2′6′Dmt-Lys-Phe-NH2] (H-[dR][Dmt]KF-NH2)
[2]
  effect on membrane potential or respiratory control: without affecting
[3]; high fat fed rats (FIGS. 4C and 4D)
  development of insulin resistance (HOMA, area under the curves for blood glucose and insulin): completely blocked
[3]; high fat fed rats, 2 g/kg glucose by gavage (FIG. 4A)
  blood glucose response to the oral glucose challenge: normalized
[3]; high fat fed rats, 2 g/kg glucose by gavage (FIG. 4B)
  insulin response to the oral glucose challenge: normalized
[4]
  weight gain: did not affect
[5]
  ROS: effectively reduce ROS
[6]
  reduction in mitochondrial H2O2 emission: greater than 50%
[7]; palmitoyl-carnitine-supported, high fat fed rats (FIG. 3F)
  basal rate of respiration: not affected
[7]; pyruvate/malate-supported, high fat fed rats (FIG. 3E)
  basal rate of respiration: not affected
Akt
  Akt phosphorylation in response to glucose ingestion: completely preserved
Pancreatic islet cells
  ROS: effectively reduce ROS
[8]; dose response curve in vivo (FIG. 3B), succinate-supported respiration
  reduction in mitochondrial H2O2 emission: greater than 50%
[8]; palmitoyl-carnitine supported respiration, daily SS-31 (FIG. 3D)
  increase in mitochondrial oxidant emitting potential: completely prevented
[8]; succinate supported respiration, daily SS-31 (FIG. 3C)
  increase in mitochondrial oxidant emitting potential: completely prevented
Fatty (fa/fa) Zucker rat; Zucker rats (~12 weeks of age)
  whole body and muscle insulin resistance: ameliorate or reduce
Fatty (fa/fa) Zucker rat; young Zucker rats (~3-4 weeks of age)
  development of whole body and muscle insulin resistance: attenuate or prevent
[9]; high fat fed rats, 10 h fast and 1 h after glucose ingestion (FIG. 3H)
  GSH/GSSG ratio: preserved the GSH/GSSG ratio near control levels
[9]; high fat feeding with SS-31 treatment, skeletal muscle (FIG. 3G)
  reduction in total cellular glutathione content (GSHT): ~30%
mu-opioid receptor
  mu-opioid receptor agonist activity: does not have mu-opioid receptor agonist activity
[10]
  ROS: effectively reduce ROS

## F[dR]FK-NH2 [SS-20]
mu-opioid receptor
  mu-opioid receptor agonist activity: does not have mu-opioid receptor agonist activity

## Tyr-D-Arg-Phe-Lys-NH2 [SS-01]
mu-opioid receptor
  mu-opioid receptor agonist activity: has mu-opioid receptor agonist activity
